Measured values taken from PubChem BioAssay AID179 (DTP/NCI, 2004).
Active and inactive are the calls of the source.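 The calls were made as follows: active = compounds giving half or more protection of infected cells from virus-caused growth loss, again on retest; inactive = the rest.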 Where a SMILES comes first, the peptide text is derived from it. The star is where a group is joined. ONb = O=[N+]([O-])c1ccc(CO*)cc1; Cbz = O=C(OCc1ccccc1)*

System: CEM cells HIV-1 protection, formazan growth assay
Assay: NCI AIDS Antiviral Assay
Conditions: for IC50: measured here: growth of uninfected CEM cells
Procedure, shortened: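 Protection of CEM cells against HIV-1 measured as cell growth via soluble formazan read-out, with five concentrations tested on both infected and uninfected cells; failure to protect may reflect toxicity.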

SMILES | EC50 | IC50 | outcome
O=C1c2ccccc2S(=O)(=O)c2c1cccc2[N+](=O)[O-] | > 200 µM | 0.851 µM | –
CC(Oc1ccc2c(=O)cc(-c3ccccc3)oc2c1)C(=O)O (configuration not stated) | – | – | inactive
CNC(=O)CNC(=O)CCC(=O)OC | > 200 µM | > 200 µM | –
C[C@H](C(=O)O)C(=O)NC(=O)N(Cc1ccccc1)N=O | – | – | inactive
O=S(=O)(CCn1c(Sc2ccccc2)c(Sc2ccccc2)c2ccccc21)c1ccccc1 | > 200 µM | > 200 µM | –
O=S(=O)(OC(=C(c1ccccc1)c1ccccc1)c1ccccc1)C(F)(F)F | > 17.8 µM | > 17.8 µM | –
COc1cc2c(cc1O)CN1CCC23C=C[C@@H](O)CC13 (some centres not stated) | > 912 µM | 38.9 µM | –
Nc1ccn(C2CSC(CO)CO2)c(=O)n1 (configuration not stated) | > 513 µM | 407 µM | –
NS(=O)(=O)c1ccccc1[N+](=O)[O-] | – | – | inactive
C[N+]12C(=O)CC3OCC=C4C[N+]5(C)CCC6(c7ccccc71)C2C3C4CC65O (configuration not stated) | > 398 µM | 224 µM | –
CC1=CC(=O)C(=CN2C(=O)/C(=C\c3cccnc3)NC2=S)C(=O)O1 | > 200 µM | > 200 µM | –
COC(=O)C(=O)C(C(C)=O)C(=O)NCc1ccc(OC)c(OC)c1 (configuration not stated) | 61.7 µM | 741 µM | –
O=C(O)/C(=C/c1c(O)ccc2ccccc12)c1csc(-c2nc(/C(=C\c3c(O)ccc4ccccc34)C(=O)O)cs2)n1 | > 43.7 µM | 23.4 µM | –
O=C(CC(C(=O)c1ccc(F)cc1)c1ccsc1)c1cccs1 (configuration not stated) | > 200 µM | > 200 µM | –
COC(=O)[C@@]1(C)/C(=N/NS(=O)(=O)c2ccc(C)cc2)CCC[C@@H]1C | > 269 µM | 219 µM | –
Cc1cc(C)nc(NS(=O)(=O)c2ccc(Nc3c4ccccc4nc4c(C(=O)N5CCN(CCOS(C)(=O)=O)CC5)ccc(Cl)c34)cc2)n1 | > 30.9 µM | > 30.9 µM | –
Oc1c(CN2CCOCC2)ccc2cccnc12 | > 200 µM | 3.72 µM | –
CCOC(=O)CSc1nc(N)c2c(-c3ccc(OC)c(OC)c3)c3c(nc2n1)CCCC3 | > 200 µM | > 200 µM | –
NC(N)=NS(=O)(=O)c1ccc(NC(=O)c2ccc3nc4ccccc4c(N)c3c2)cc1 | 102 µM | > 200 µM | –
COC1(CC[C@@H](C)COC2OC(CO)C(O)C(O)C2O)O[C@H]2C[C@H]3[C@@H]4CC=C5C[C@@H](OC6OC(CO)C(OC7OC(C)C(O)C(O)C7O)C(O)C6OC6OC(C)C(O)C(O)C6O)CC[C@]5(C)[C@H]4CC[C@]3(C)[C@H]2[C@@H]1C (some centres not stated) | > 200 µM | 2.57 µM | –
OC(Cc1cccc2ccccc12)CN1CCC(c2ccccc2)CC1 (configuration not stated) | > 93.3 µM | 28.8 µM | –

SMILES | EC50 | IC50 | outcome
CN(C)c1ccc(/C=C2\Cc3ccccc3C2=O)cc1 | > 14.5 µM | > 14.5 µM | –
N#Cc1c(-c2ccc([N+](=O)[O-])cc2)c(C#N)c(=O)n(NS(=O)(=O)c2ccccc2)c1O | > 200 µM | > 200 µM | –
O=C(N(O)c1ccccc1Cl)C(O)(c1ccccc1)c1ccccc1 | > 20 µM | > 20 µM | –
COC1C(OC(=O)c2ccc(C)[nH]2)C(O)C(Oc2ccc3c(O)c(NC(=O)c4c[nH]c(C(=O)Nc5c(O)c6ccc(OC7OC(C)(C)C(OC)C(OC(=O)c8ccc(C)[nH]8)C7O)c(C)c6oc5=O)c4C)c(=O)oc3c2C)OC1(C)C (configuration not stated) | > 28.2 µM | 7.41 µM | –
O=C(OCC1OC2OC(c3ccccc3)(n3ccc4c([N+](=O)[O-])ccnc43)OC2C1OC(=O)c1ccccc1)c1ccccc1 (configuration not stated) | > 200 µM | 145 µM | –
CC(C)CC(NC(=O)C(Cc1cnc[nH]1)NC(=O)C(Cc1ccccc1)NC(=O)C1CCCN1C(=O)OCc1ccccc1)C(=O)NC(CC(C)C)C(=O)NC(C(=O)NC(Cc1ccc(O)cc1)C(=O)NC(CO)C(=O)OCc1ccc([N+](=O)[O-])cc1)C(C)C (configuration not stated) (Cbz-PFHLLVYS-ONb; configuration not given here) | > 11 µM | > 11 µM | –
CC(=O)c1ccc2c3c(ccc([N+](=O)[O-])c13)C(=O)OC2=O | > 200 µM | 30.9 µM | –
O=c1ccn(C2CCC3(CO)CC23)c(=O)[nH]1 (configuration not stated) | > 50.1 µM | > 50.1 µM | –
Cc1cc(Cl)ccc1N=NC(=O)NNc1ccc(Cl)cc1C | > 200 µM | 52.5 µM | –
CC1(CO)CC(O)C(n2cnc3c(N)ncnc32)O1 (configuration not stated) | > 5.13 µM | > 5.13 µM | –
O=C1c2cccc3cc([N+](=O)[O-])cc(c23)C(=O)N1O | > 200 µM | 12 µM | –
COC(=O)C1C2c3ccccc3-c3ccccc3C2(OC(C)=O)[C@@]1(Cl)C(=O)OC (some centres not stated) | > 43.7 µM | 6.61 µM | –
CC1=Nc2ccccc2N=C(c2c(O)c3c(ccc4ccccc43)oc2=O)C1 | > 200 µM | 20 µM | –
CN(/N=C/c1ccnc2ccccc12)c1ccc(Cl)cc1[N+](=O)[O-] | > 100 µM | 12.3 µM | –
NC(=O)C1=CC2C3C=CC2(O)C(=O)OC3O1 (configuration not stated) | > 1120 µM | 1.17 µM | –
CCN(CC)C1Oc2cc3c(cc2C(c2cccc(OC)c2O)C1C)OCO3 (configuration not stated) | > 200 µM | 3.8 µM | –
C[N+]1(C)CCCC(C#N)(c2ccccc2)CC1 (configuration not stated) | > 813 µM | – | –
CC1=C(C#N)C2C(=C(C)N1)C(N)=Nc1ccccc12 (configuration not stated) | > 200 µM | 13.5 µM | –
CCOC(=O)c1cn2c3c(cccc3c1=O)CC2 | > 132 µM | > 132 µM | –
CSC1=NC(=O)CCN1C1OCC(OC(C)=O)C(OC(C)=O)C1OC(C)=O (configuration not stated) | > 200 µM | 105 µM | –
N#CC1=C(N)Oc2cc(O)cc(O)c2C1c1ccccc1 (configuration not stated) | > 200 µM | > 100 µM | –

SMILES | EC50 | IC50 | outcome
COc1ccc(OC)c2c1C(=O)C1CC1(Br)C2=O (configuration not stated) | – | – | inactive
CCS(CC)(CC)CC1CCCC2=CCC(P(=O)(c3ccccc3)c3ccccc3)CC21 (configuration not stated) | > 15.5 µM | > 15.5 µM | –
O=S(=O)(O)c1cc2c(c(S(=O)(=O)O)c1)[O][Sb]1([O]2)[O]c2cc(S(=O)(=O)O)cc(S(=O)(=O)O)c2[O]1 | > 324 µM | > 324 µM | –
CCOC(=O)c1cc(/C=C/C(C)=C/C(=O)OC)n(C)c1C | > 24.5 µM | > 24.5 µM | –
COc1ccccc1C(C1=C(O)COC1=O)c1cc2c(cc1OC(C)=O)OCO2 (configuration not stated) | > 200 µM | > 200 µM | –
CCCCCCNc1n[nH]c(=O)c2c1nnn2Cc1ccccc1 | > 200 µM | > 200 µM | –
COc1ccccc1N(CN1C(=O)CCC1C(=O)O)C(C)=O (configuration not stated) | – | – | inactive
Cc1ccc(N=N/C(=N/NC(=O)c2cc(Cl)ccc2O)c2ccc(N(CCC#N)CCC#N)cc2C)cc1 | > 200 µM | 10.7 µM | –
CC(=O)Nc1ccc(/C=C/C(=O)c2sc(C(N)=S)nc2C)cc1 | > 75.9 µM | > 75.9 µM | –
CCOP(=O)(OCC)C(NC(=O)C(C(F)(F)F)C(F)(F)F)c1ccccc1 (configuration not stated) | > 200 µM | 24.5 µM | –
CC1C(=O)CCC1C(Sc1ccccc1)(Sc1ccccc1)Sc1ccccc1 (configuration not stated) | – | – | inactive
CCC(CC)(CO)CNc1cc(Cl)nc(N)n1 | > 200 µM | > 100 µM | –
C=CC/C(C(=O)OC)=C(/C(=O)OC)N(CCC)CCC | > 200 µM | 33.9 µM | –
O=[N+]([O-])c1cccc(C2=NN(c3ccccc3)C3c4cc(Br)ccc4OCC23)c1 (configuration not stated) | > 11.5 µM | > 11.5 µM | –
NC(=O)c1nnc2cc(F)ccc2c1N | > 200 µM | 74.1 µM | –
c1ccc2c(c1)OCCOCCOc1ccccc1OCCO2 | > 295 µM | 74.1 µM | –
O=C1Nc2ccccc2Cn2c1cc1oc(-c3ccccc3)cc12 | > 200 µM | 191 µM | –
COC1/C=C/OC2(C)Oc3c(C)c(O)c4c(O)c(cc(OCC(=O)N5CCC(O)(Cc6ccccc6)CC5)c4c3C2=O)NC(=O)/C(C)=C/C=CC(C)C(O)C(C)C(O)C(C)C(OC(C)=O)C1C (configuration not stated) | > 112 µM | 30.9 µM | –
O=S(=O)(O)c1ccc2cc(N=Nc3cc(S(=O)(=O)O)c4cccnc4c3O)ccc2c1 | 24 µM | > 100 µM | –
CC[C@@H]1CC2CN3CCc4c([nH]c5cc(OC)c(OC)cc45)C(C(=O)OC)(C2)C13 (some centres not stated) | – | – | inactive
O=C(O)c1ccc(CS(=O)(=O)c2ccc([N+](=O)[O-])cc2)c([N+](=O)[O-])c1 | > 676 µM | 324 µM | –

SMILES | EC50 | IC50 | outcome
CC1CCC23COC(=O)C2C(O)CCC3C1(C)CC(O)c1ccoc1 (configuration not stated) | > 145 µM | > 145 µM | –
O=S(=O)(O)Cc1ccc([As](=O)(O)O)cc1 | > 200 µM | 129 µM | –
Nc1ccc(Cl)c(-c2nc3ccccc3[nH]2)c1 | > 77.6 µM | > 77.6 µM | –
CCS[C@]1(C)C(=O)c2ccccc2C(=O)[C@@]1(C)O | – | – | inactive
NC(N)=NCc1ccc2c(c1)OCO2 | > 200 µM | 166 µM | –
O=P1(O)c2ccccc2-c2ccccc21 | > 200 µM | > 200 µM | –
CC(C)CC(C(N)=O)C(=O)NC(Cc1ccccc1)NC(=O)CNC(=O)C(C)NC(=O)C(N)Cc1ccc(O)cc1 (configuration not stated) | > 200 µM | > 200 µM | –
N#C/C(=C1\SC(N=Nc2ccc(Cl)cc2)C(=O)N1c1ccccc1)c1nc2ccccc2[nH]1 (configuration not stated) | > 3.8 µM | > 3.8 µM | –
CC(=O)OCc1cc(=O)n(C)c2c3c4c(cc12)c(C)cc(=O)n4CO3 | > 7.94 µM | 1.26 µM | –
Clc1ccc2c(c1)Sc1ccc(Cl)cc1S2 | > 200 µM | > 200 µM | –
Cn1cc(C(=O)c2ccccc2)cc(C(=O)c2ccccc2)c1=O | – | – | inactive
O=c1c2ccccc2c(=O)n2n1-c1cccc(c1)CSSCc1cccc-2c1 | – | – | inactive
CCOc1ccc(/C=C2\NC(=S)N(/C=C3\C(=O)Oc4ccccc4C3=O)C2=O)cc1 | – | – | inactive
Cc1cnc2sn(-c3ccc(Oc4ccccc4)cc3)c(=O)c2c1 | > 200 µM | 10 µM | –
Fc1ccc2c(c1)SC1Oc3ccccc3-c3c1c-2nn3-c1ccccc1 (configuration not stated) | > 19.5 µM | > 19.5 µM | –
CC(=O)NC1C(OCc2ccccc2)OC(CO)C(O)C1OCC(=O)N1CCCC1C(=O)N[C@@H](CCC(=O)NCCCCNc1c2ccccc2nc2cccc([N+](=O)[O-])c12)C(N)=O (some centres not stated) | > 100 µM | 15.8 µM | –
C=CC1(C)C=C2C(O)CC3C(C)(C(=O)OC)CCCC3(C)C2CC1 (configuration not stated) | > 21.9 µM | 11 µM | –
O=C1CCCc2sccc21 | > 200 µM | > 200 µM | –
C=CC(C)(C)N[C@@H](C(=O)N1CCC[C@H]1c1nc(-c2nc(C(=O)OCC=C(C)C)c(C)o2)c(C)o1)C(C)C | > 200 µM | 58.9 µM | –
